Results on one substance are retold here after patent US10578608B1, “Tools to detect, track and target cancer cells in vivo” (The Regents of the University of California, priority 2015, dated 2020).

One series relates to MSI1 RNA. As to the kind of experiment: MSI1 expression after ASO free uptake (q-RT-PCR). Particulars: 24 hours, MIA PaCa-2 cells. Type of series: cell-based, human. As for the experimental part:
(FIG. 8 F to FIG. 8H) Real time PCR analysis of Msi expression following ASO free uptake in MIA PaCa-2 cells. MIA PaCa-2 cells were treated with 2 Gen 2.5 cEt ASOx target MSI1 or Control Gen 2.5 ASO for 24 hours, RNA was isolated and target knockdown (MSI1 RNA level) was determined by q-RT-PCR. IC50 values for each ASO were calculated using GraphPad Prism software; each treatment condition was performed in triplicate. (FIG. 8I) Colony formation assay in MSI1 ASO-treated MIA PaCa-2 cells after weekly delivery of control or MSI1 ASOs; colonies were counted after 4 weeks; n=3 for each ASO tested. (FIG. 8J) In vivo tracking of tumor volume in MSI1 ASO treated MIA PaCa-2 tumors with intratumoral delivery of control or MSI1 ASOs every day for 5 days followed by 2 days off; n=5 for each ASO tested. Nonlinear regression was used to determine the difference in slope between Control ASO and MSI1-ASO-1 (p<0.001). (FIG. 8K) In vivo tracking of tumor volume of primary KP^f/fC tumors with intratumoral delivery of control ASO or MSI1 ASOs following tumor establishment (n=4). […]
To identify human Msi ASO inhibitors, rapid throughput screens were performed to identify effective ASOs as previously described (Wang, J. C. Y. & Dick, J. E. Cancer stem cells: lessons from leukemia. Trends in Cell Biology 15, 494-501 (2005); Reya, T., Morrison, S. J., Clarke, M. F. & Weissman, I. L. Stem cells, cancer, and cancer stem cells. Nature 414(6859):105-11 (2001); Carroll, J. B. et al. Potent and Selective Antisense Oligonucleotides Targeting Single-Nucleotide Polymorphisms in the Huntington Disease Gene/Allele-Specific Silencing of Mutant Huntingtin. Molecular Therapy 19, 2178-2185 (2009); Samuel, V. T. et al. Targeting foxo1 in mice using antisense oligonucleotide improves hepatic and peripheral insulin action. […] Gene expression was assessed with taqman probes for MSI1 and MSI2. […] Colonies were counted 21 days after the first ASO treatment. […] Tumor measurements were recorded every 3 days. […]

Another series deals with MIA PaCa-2 tumors. As to the kind of experiment: In vivo growth of MIA PaCa-2 flank tumors with intratumoral ASO. Further details: species or system mouse. Particulars: intratumoral delivery, four weeks (5 days on and 2 days off), NSG mice. From the text:
Although ASOs have been used to inhibit gene expression in a variety of tissues (Carroll, J. B. et al. Potent and Selective Antisense Oligonucleotides Targeting Single-Nucleotide Polymorphisms in the Huntington Disease Gene/Allele-Specific Silencing of Mutant Huntingtin. Molecular Therapy 19, 2178-2185 (2009); Hung, G. et al. Characterization of Target mRNA Reduction Through In SituRNA Hybridization in Multiple Organ Systems Following Systemic Antisense Treatment in Animals. Nucleic Acid Therapeutics 23, 369-378 (2013); Rigo, F. et al. Pharmacology of a central nervous system delivered 2′-O-methoxyethyl-modified survival of motor neuron splicing oligonucleotide in mice and nonhuman primates. Journal of Pharmacology and Experimental Therapeutics 350, 46-55 (2014)), whether pancreatic cancer cells can take up ASOs was not known. […] Functionally MSI1 ASOs led to a marked reduction in colony numbers as well as in colony size, with a cumulative reduction of ˜2.5 fold in total growth (FIG. 4I). To test the impact of ASO mediated MSI1 inhibition in vivo, human pancreatic cancer cells were transplanted until growth was measurable. Subsequently, MSI1 inhibitors were delivered intratumorally for a period of four weeks (5 days on and 2 days off) and tumor growth monitored. […] KP^f/fC pancreatic tumor cells were isolated, transplanted and monitored until measurable growth (30 mm^3). […]

k = constrained ethyl (cEt); d = 2'-deoxy (DNA)

As to “5′-ATATGATACAGGACGG-3′ (sugars from the 5' end k3 d10 k3, backbone and methylation of C not given here) [ASO-1]”, the “MSI1 expression in cell lines after ASO treatment” value with MSI1 RNA is recorded as “inhibited MSI1 expression”. In addition, in the series on MIA PaCa-2 tumors, the “Tumor growth of human pancreatic cancer cell line derived tumors” value is “significant reduction in the rate of tumor growth”.
